From patent US20070196856A1, “Methods of determining activity of ryanodine receptor modulators” (Allergan, Inc., priority 2006, published 2007) come the findings set out here.

The experiment concerns ryanodine receptors.

For `O=C1CN(/N=C/c2ccc(-c3ccc([N+](=O)[O-])cc3)o2)C(O)=N1` [dantrolene, Dantrolene], the “caffeine-induced Ca++ release” value (1.5 mM caffeine + 20 mM dantrolene, 5 minutes dantrolene pretreatment, retinal ganglion cells, FIG. 1 trace 2) was “blocked”. Further, the “caffeine effect after washout” value (washout of dantrolene with 12.5 mM caffeine alone, FIG. 1 trace 3) is reported as “recovered partially”.
